Experiment: xn = mol fraction of the nth substance listed
Details: 100.7 kPa, Liquid; for viscosity: Falling or rolling sphere viscometry; for speed of sound: Frequency=3 MHz, Sing-around technique in a fixed-path interferometer; for mass density: Vibrating tube method

CCCCN [1-butanamine] + CCCC[n+]1ccn(C)c1.O=S(=O)([N-]S(=O)(=O)C(F)(F)F)C(F)(F)F
Details	mass density, 313.15 K [kg/m3]	mass density, 318.15 K [kg/m3]	mass density, 323.15 K [kg/m3]	speed of sound, 313.15 K [m/s]	speed of sound, 318.15 K [m/s]	speed of sound, 323.15 K [m/s]	viscosity, 313.15 K [mPa·s]	viscosity, 318.15 K [mPa·s]	viscosity, 323.15 K [mPa·s]
x2 = 0	718.66	714.1	709.21	1178.7	1156.2	1133.5	0.39	0.37	0.35
x2 = 0.0261	–	–	–	1169.5	1148.2	1126.2	–	–	–
x2 = 0.0486	–	–	–	1163.2	1143.2	1121.5	–	–	–
x2 = 0.0804	–	–	–	1157.5	1138.2	1117.8	–	–	–
x2 = 0.1026	902.44	898.17	893.96	1155	1137.8	1118.6	1.1	0.87	0.74
x2 = 0.2026	1028.65	1024.27	1019.8	1152.5	1137.2	1119	1.99	1.57	1.32
x2 = 0.3004	1120.14	1115.68	1110.93	1155.1	1141.4	1124.5	3.21	2.53	2.09
x2 = 0.4056	1195.66	1191.05	1186.44	1160	1146.8	1130.6	4.98	3.95	3.26
x2 = 0.5051	1252.53	1247.99	1243.22	1165.2	1152.5	1137.2	7.11	5.65	4.64
x2 = 0.6119	1302.05	1297.45	1292.55	1171.9	1160	1145.6	9.9	7.95	6.49
x2 = 0.7025	1337.26	1332.6	1327.75	1177.8	1167	1153	12.8	10.45	8.48
x2 = 0.8002	1369.77	1364.99	1360.33	1184.5	1174.2	1161.3	16.65	13.75	11.32
x2 = 0.9015	1398.51	1393.75	1389.17	1190.5	1180.5	1168.3	21.62	17.99	14.91

Source: the NIST ThermoML archive (doi:10.1016/j.jct.2015.09.022)
